Laboratory results from ChEMBL document CHEMBL1152586, “Neuraminidase inhibitory activities of flavonols isolated from Rhodiola rosea roots and their in vitro anti-influenza viral activities” (Bioorg Med Chem, 2009).
Calls of active or inactive are those of the source. The calls are words filed in the database; no cut-off is given here.

Experiments:
Influenza A virus [1] = assay: Antiviral activity against influenza A virus H1N1 A/PR/8/34 infected in MDCK cells assessed as reduction in virus-induced cytopathic effect; type: functional, organism-based; details: A/Puerto Rico/8/1934(H1N1)
[2] = Selectivity index, ratio of CC50 for MDCK cells to EC50 for influenza virus H9N2 A/Chicken/Korea/MS96/96; type: toxicity, cell-based; details: dog, read-out: Ratio CC50/EC50
[3] = Selectivity index, ratio of CC50 for MDCK cells to EC50 for influenza virus H1N1 A/PR/8/34; type: toxicity, cell-based; details: dog, read-out: Ratio CC50/EC50
[4] = Cytotoxicity against MDCK cells after 48 hrs by MTT assay; type: cell-based, Canis lupus familiaris; details: dog
Influenza A virus [5] = assay: Antiviral activity against influenza A virus H9N2 A/Chicken/Korea/MS96/96 infected in MDCK cells assessed as reduction in virus-induced cytopathic effect; type: functional, organism-based; details: A/Chicken/Korea/MS96/96, MDCK
Neuraminidase = Neuraminidase (Influenza A virus, UniProt B4URF0); assay: Noncompetitive inhibition of recombinant influenza A virus rvH1N1 A/Bervig_Mission/1/18 neuraminidase
Sialidase = biological target: T1, Sialidase (Clostridium perfringens, UniProt P10481); assay: Inhibition of Clostridium perfringens neuraminidase
T1 sequence (P10481 whole entry): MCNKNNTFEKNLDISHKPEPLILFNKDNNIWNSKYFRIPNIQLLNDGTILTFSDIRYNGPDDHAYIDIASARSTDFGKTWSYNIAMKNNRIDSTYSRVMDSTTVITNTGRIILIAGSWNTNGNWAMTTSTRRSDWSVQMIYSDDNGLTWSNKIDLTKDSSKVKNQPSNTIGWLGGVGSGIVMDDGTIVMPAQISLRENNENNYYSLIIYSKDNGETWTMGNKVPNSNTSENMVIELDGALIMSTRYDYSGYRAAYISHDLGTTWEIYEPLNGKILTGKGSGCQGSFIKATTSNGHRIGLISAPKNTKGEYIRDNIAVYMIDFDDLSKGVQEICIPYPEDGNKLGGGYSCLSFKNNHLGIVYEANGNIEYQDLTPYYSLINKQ

Influenza A virus [6] = assay: Antiviral activity against influenza A virus H1N1 A/PR/8/34 infected in MDCK cells assessed as reduction in fluorescence positive cells at 50 uM immunofluorescence assay; type: functional, organism-based; details: A/Puerto Rico/8/1934(H1N1)

Molecule O=c1cc(-c2ccc(O)cc2)oc2cc(O)cc(O)c12 [APIGENIN] has an EC50 (Influenza A virus [1]) of 60.4 µM, a selectivity ratio [2] greater than 7.03 and a selectivity ratio [3] greater than 4.97. It also gave a CC50 at 48 h [4] greater than 300 µM, an EC50 (Influenza A virus [5]) of 42.7 µM and an IC50 (Neuraminidase) of 33.4 µM. For the same molecule, the Ki (Neuraminidase) was 37.1 µM.
Molecule O=c1cc(-c2ccc(O)cc2)oc2cc(O[C@@H]3O[C@H](CO)[C@@H](O)[C@H](O)[C@H]3O)cc(O)c12 [APIGETRIN] has an IC50 (Sialidase) of 39.3 µM, an IC50 (Neuraminidase) of 46.9 µM and a Ki (Neuraminidase) of 53.8 µM.
For O=c1c(O[C@@H]2O[C@H](CO)[C@@H](O)[C@H](O)[C@H]2O)c(-c2ccc(O)cc2)oc2cc(O)cc(O)c12 [ASTRAGALIN], the EC50 (Influenza A virus [1]) was 40 µM, the selectivity ratio [2] was greater than 4.85 and the selectivity ratio [3] was greater than 7.5. The CC50 at 48 h [4] was greater than 300 µM, the IC50 (Sialidase) was 29.4 µM and the EC50 (Influenza A virus [5]) was 61.9 µM. The IC50 (Neuraminidase) was 38.4 µM and the Ki (Neuraminidase) was 33 µM.
O=c1c(O)c(-c2ccc(O)c(O)c2)oc2c(O)c(O)cc(O)c12 [GOSSYPETIN] gave an EC50 (Influenza A virus [1]) of 43 µM, a selectivity ratio [2] of 7.8 and a selectivity ratio [3] of 6.58. For the same molecule, the CC50 at 48 h [4] was 283 µM, the IC50 (Sialidase) was 0.8 µM and the EC50 (Influenza A virus [5]) was 36.3 µM. For the same molecule, the IC50 (Neuraminidase) was 2.6 µM and the Ki (Neuraminidase) was 7.7 µM.
In the case of O=c1c(O)c(-c2ccc(O)cc2)oc2c(O)c(O)cc(O)c12 [HERBACETIN], the EC50 (Influenza A virus [1]) is reported as 35 µM, the selectivity ratio [2] is reported as 12.8 and the selectivity ratio [3] is reported as 8.39. For the same molecule, the CC50 at 48 h [4] was 294 µM, the IC50 (Sialidase) was 1.4 µM and the EC50 (Influenza A virus [5]) was 23 µM. It also gave an IC50 (Neuraminidase) of 8.9 µM and a Ki (Neuraminidase) of 13.7 µM.
For O=c1c(O)c(-c2ccc(O)cc2)oc2cc(O)cc(O)c12 [KAEMPFEROL], the EC50 (Influenza A virus [1]) was 30.2 µM, the selectivity ratio [2] was greater than 16.2 and the selectivity ratio [3] was greater than 9.93. It also gave a CC50 at 48 h [4] greater than 300 µM, an IC50 (Sialidase) of 8 µM and an EC50 (Influenza A virus [5]) of 18.5 µM. For the same molecule, the IC50 (Neuraminidase) was 11.2 µM, the Ki (Neuraminidase) was 21.1 µM and the Activity (Influenza A virus [6]) was “Active”.
In the case of O=c1c(O[C@@H]2O[C@H](CO)[C@@H](O)[C@H](O)[C@H]2O)c(-c2ccc(O)cc2)oc2c(O[C@@H]3O[C@H](CO)[C@@H](O)[C@H](O)[C@H]3O)c(O)cc(O)c12 [LINOCINAMARIN], the EC50 (Influenza A virus [1]) is reported as 99.1 µM, the selectivity ratio [2] is reported as greater than 3 and the selectivity ratio [3] is reported as greater than 3.03. The CC50 at 48 h [4] was greater than 300 µM, the IC50 (Sialidase) was 39.1 µM and the EC50 (Influenza A virus [5]) was 100 µM. The IC50 (Neuraminidase) was 44.2 µM and the Ki (Neuraminidase) was 63.8 µM.
O=c1cc(-c2ccc(O)c(O)c2)oc2cc(O)cc(O)c12 [LUTEOLIN] gave an EC50 (Influenza A virus [1]) of 84 µM, a selectivity ratio [2] of 1.6 and a selectivity ratio [3] of 1.96. The CC50 at 48 h [4] was 165 µM, the IC50 (Sialidase) was 4.3 µM and the EC50 (Influenza A virus [5]) was 103 µM. For the same molecule, the IC50 (Neuraminidase) was 11 µM and the Ki (Neuraminidase) was 19.6 µM.
C[C@@H]1O[C@@H](OC[C@H]2O[C@@H](Oc3c(-c4ccc(O)cc4)oc4cc(O)cc(O)c4c3=O)[C@H](O)[C@@H](O)[C@@H]2O)[C@H](O)[C@H](O)[C@H]1O [NICOTIFLOROSIDE] showed an EC50 (Influenza A virus [1]) of 40.1 µM, a selectivity ratio [2] greater than 4.12 and a selectivity ratio [3] greater than 7.48. The CC50 at 48 h [4] was greater than 300 µM, the IC50 (Sialidase) was 55.5 µM and the EC50 (Influenza A virus [5]) was 72.9 µM. The IC50 (Neuraminidase) was 31.7 µM and the Ki (Neuraminidase) was 32.7 µM.
CCOC(=O)C1=C[C@@H](OC(CC)CC)[C@H](NC(C)=O)[C@@H](N)C1 [OSELTAMIVIR] showed an EC50 (Influenza A virus [1]) of 8.3 µM, a CC50 at 48 h [4] greater than 300 µM and an EC50 (Influenza A virus [5]) of 6.25 µM. The Activity (Influenza A virus [6]) was “Active”.
O=c1c(O)c(-c2ccc(O)c(O)c2)oc2cc(O)cc(O)c12 [QUERCETIN] gave an EC50 (Influenza A virus [1]) of 43.1 µM, a selectivity ratio [2] of 1.9 and a selectivity ratio [3] of 5.89. The CC50 at 48 h [4] was 254 µM, the IC50 (Sialidase) was 1.7 µM and the EC50 (Influenza A virus [5]) was 134 µM. For the same molecule, the IC50 (Neuraminidase) was 2.2 µM and the Ki (Neuraminidase) was 3.8 µM.
In the case of COc1cc([C@H]2Oc3cc(O)c4c(=O)c(O)c(-c5ccc(O)cc5)oc4c3O[C@@H]2CO)ccc1O [RHODIOLININ], the EC50 (Influenza A virus [1]) is reported as 41.7 µM, the selectivity ratio [2] is reported as greater than 10.2 and the selectivity ratio [3] is reported as greater than 7.19. For the same molecule, the CC50 at 48 h [4] was greater than 300 µM, the IC50 (Sialidase) was 6.1 µM and the EC50 (Influenza A virus [5]) was 29.3 µM. For the same molecule, the IC50 (Neuraminidase) was 10.3 µM and the Ki (Neuraminidase) was 14.1 µM.
C[C@@H]1OC(Oc2cc(O)c3c(=O)c(O)c(-c4ccc(O)cc4)oc3c2O)[C@H](O)[C@H](O)[C@H]1O (stereo partly specified) [RHODIONIN] showed an EC50 (Influenza A virus [1]) of 74.8 µM, a selectivity ratio [2] greater than 6.05 and a selectivity ratio [3] greater than 4.01. The CC50 at 48 h [4] was greater than 300 µM, the IC50 (Sialidase) was 40.6 µM and the EC50 (Influenza A virus [5]) was 49.6 µM. The IC50 (Neuraminidase) was 32.2 µM and the Ki (Neuraminidase) was 59.4 µM.
For C[C@@H]1O[C@@H](Oc2cc(O)c3c(=O)c(O)c(-c4ccc(O)cc4)oc3c2O)[C@H](O)[C@H](O[C@@H]2O[C@H](CO)[C@@H](O)[C@H](O)[C@H]2O)[C@H]1O [RHODIOSIN], the selectivity ratio [2] was 8.47, the selectivity ratio [3] was 3.63 and the CC50 at 48 h [4] was 297 µM. For the same molecule, the IC50 (Sialidase) was 56.9 µM, the IC50 (Neuraminidase) was 56.5 µM and the Ki (Neuraminidase) was 64.1 µM.
For C[C@@H]1O[C@@H](Oc2cc(O)c3c(=O)c(O)c(-c4ccc(O)cc4)oc3c2O)[C@H](O)[C@H](O[C@H]2O[C@@H](CO)[C@H](O)[C@@H](O)[C@@H]2O)[C@H]1O [RHODIOSIN], the EC50 (Influenza A virus [1]) was 81.9 µM and the EC50 (Influenza A virus [5]) was 35.1 µM.
Molecule C[C@@H]1O[C@@H](OC[C@H]2O[C@@H](Oc3c(-c4ccc(O)c(O)c4)oc4cc(O)cc(O)c4c3=O)[C@H](O)[C@@H](O)[C@@H]2O)[C@H](O)[C@H](O)[C@H]1O [RUTIN] has an IC50 (Sialidase) of 30.9 µM, an IC50 (Neuraminidase) of 34.4 µM and a Ki (Neuraminidase) of 33.8 µM.
